Source: ChEMBL document CHEMBL3351986, “Probing linker design in citric acid-ciprofloxacin conjugates” (2014)
In brackets after ≈: the same amount, converted by molar mass. Activity calls are given as the source filed them. The calls are words filed in the database; no cut-off is given here.

Legend:
Serratia marcescens [1] = assay: Antimicrobial activity against Serratia marcescens BIG 11 NCTC 1377 after 18 hrs by micro dilution method; assay type: functional; conditions: BIG 11 NCTC 1377, 18 h
Burkholderia cepacia [2] = assay: Antimicrobial activity against Burkholderia cepacia BIG 121 after 18 hrs by micro dilution method; assay type: functional; conditions: BIG 121, 18 h
Burkholderia cepacia [3] = assay: Antimicrobial activity against Burkholderia cepacia BIG 119 after 18 hrs by micro dilution method; assay type: functional; conditions: BIG 119, 18 h
[4] = test system: Stenotrophomonas maltophilia; assay: Antimicrobial activity against Stenotrophomonas maltophilia N1127 after 18 hrs by micro dilution method; assay type: functional; conditions: N1127, 18 h
Burkholderia cepacia [5] = assay: Antimicrobial activity against Burkholderia cepacia BIG 117 after 18 hrs by micro dilution method; assay type: functional; conditions: BIG 117, 18 h
Escherichia coli [6] = assay: Antimicrobial activity against Escherichia coli BIG 0046 after 18 hrs by micro dilution method; assay type: functional; conditions: BIG 0046, 18 h
Burkholderia cepacia [7] = assay: Antimicrobial activity against Burkholderia cepacia BIG 9 NCTC 10744 after 18 hrs by micro dilution method; assay type: functional; conditions: BIG 9 NCTC 10744, 18 h
[8] = Inhibition of DNA gyrase (unknown origin) assessed as reduction in supercoiled form of DNA at 5 to 20 uM using ethidium bromide staining by gel electrophoresis
Staphylococcus aureus [9] = assay: Antimicrobial activity against Staphylococcus aureus NCTC 13142 after 18 hrs by micro dilution method; assay type: functional; conditions: NCTC 13142, 18 h
Staphylococcus aureus [10] = assay: Antimicrobial activity against Staphylococcus aureus (Oxford) NCTC 6571 after 18 hrs by micro dilution method; assay type: functional; conditions: (Oxford) NCTC 6571, 18 h
Staphylococcus aureus [11] = assay: Antimicrobial activity against Staphylococcus aureus BIG 52 after 18 hrs by micro dilution method; assay type: functional; conditions: BIG 52, 18 h
[12] = test system: Staphylococcus haemolyticus; assay: Antimicrobial activity against Staphylococcus haemolyticus NCTC 11042 after 18 hrs by micro dilution method; assay type: functional; conditions: NCTC 11042, 18 h
Burkholderia cepacia [13] = assay: Antimicrobial activity against Burkholderia cepacia BIG 120 after 18 hrs by micro dilution method; assay type: functional; conditions: BIG 120, 18 h
Burkholderia cepacia [14] = assay: Antimicrobial activity against Burkholderia cepacia BIG 118 after 18 hrs by micro dilution method; assay type: functional; conditions: BIG 118, 18 h
Staphylococcus aureus [15] = assay: Antimicrobial activity against Staphylococcus aureus HG-1 after 18 hrs by micro dilution method; assay type: functional; conditions: HG-1, 18 h
[16] = test system: Stenotrophomonas maltophilia; assay: Antimicrobial activity against Stenotrophomonas maltophilia N1119 after 18 hrs by micro dilution method; assay type: functional; conditions: N1119, 18 h
[17] = test system: Staphylococcus epidermidis; assay: Antimicrobial activity against Staphylococcus epidermidis NCTC 2749 after 18 hrs by micro dilution method; assay type: functional; conditions: NCTC 2749, 18 h
[18] = test system: Stenotrophomonas maltophilia; assay: Antimicrobial activity against Stenotrophomonas maltophilia N1124 after 18 hrs by micro dilution method; assay type: functional; conditions: N1124, 18 h
[19] = test system: Staphylococcus epidermidis; assay: Antimicrobial activity against Staphylococcus epidermidis NCTC 11047 after 18 hrs by micro dilution method; assay type: functional; conditions: NCTC 11047, 18 h
Staphylococcus aureus [20] = assay: Antimicrobial activity against Staphylococcus aureus NCTC 13143 after 18 hrs by micro dilution method; assay type: functional; conditions: NCTC 13143, 18 h
Staphylococcus aureus [21] = assay: Ratio of compound MIC to ciprofloxacin MIC for Staphylococcus aureus NCTC 13142 after 18 hrs by micro dilution method; assay type: functional
Pseudomonas aeruginosa [22] = assay: Antimicrobial activity against Pseudomonas aeruginosa environmental isolate BIG 39 after 18 hrs by micro dilution method; assay type: functional; conditions: BIG 39, 18 h
Pseudomonas aeruginosa [23] = assay: Ratio of compound MIC to ciprofloxacin MIC for Pseudomonas aeruginosa BIG 63 after 18 hrs by micro dilution method; assay type: functional
Burkholderia cepacia [24] = assay: Ratio of compound MIC to ciprofloxacin MIC for Burkholderia cepacia BIG 118 after 18 hrs by micro dilution method; assay type: functional
Serratia marcescens [25] = assay: Ratio of compound MIC to ciprofloxacin MIC for Serratia marcescens BIG 11 NCTC 1377 after 18 hrs by micro dilution method; assay type: functional
Escherichia coli [26] = assay: Ratio of compound MIC to ciprofloxacin MIC for Escherichia coli NCTC 10418 after 18 hrs by micro dilution method; assay type: functional
Pseudomonas aeruginosa [27] = assay: Ratio of compound MIC to ciprofloxacin MIC for Pseudomonas aeruginosa environmental isolate after 18 hrs by micro dilution method; assay type: functional
Staphylococcus aureus [28] = assay: Ratio of compound MIC to ciprofloxacin MIC for Staphylococcus aureus BIG 52 after 18 hrs by micro dilution method; assay type: functional
Burkholderia cepacia [29] = assay: Ratio of compound MIC to ciprofloxacin MIC for Burkholderia cepacia BIG 120 after 18 hrs by micro dilution method; assay type: functional
Pseudomonas aeruginosa [30] = assay: Antimicrobial activity against Pseudomonas aeruginosa BIG 63 after 18 hrs by micro dilution method; assay type: functional; conditions: BIG 63, 18 h
Staphylococcus aureus [31] = assay: Ratio of compound MIC to ciprofloxacin MIC for Staphylococcus aureus (Oxford) NCTC 6571 after 18 hrs by micro dilution method; assay type: functional
Burkholderia cepacia [32] = assay: Ratio of compound MIC to ciprofloxacin MIC for Burkholderia cepacia BIG 9 NCTC 10744 after 18 hrs by micro dilution method; assay type: functional
[33] = test system: Staphylococcus epidermidis; assay: Ratio of compound MIC to ciprofloxacin MIC for Staphylococcus epidermidis NCTC 11047 after 18 hrs by micro dilution method; assay type: functional
[34] = Inhibition of DNA gyrase (unknown origin) assessed as reduction in supercoiled form of DNA at 20 uM using ethidium bromide staining by gel electrophoresis
[35] = test system: Stenotrophomonas maltophilia; assay: Ratio of compound MIC to ciprofloxacin MIC for Stenotrophomonas maltophilia N1124 after 18 hrs by micro dilution method; assay type: functional
Escherichia coli [36] = assay: Antimicrobial activity against Escherichia coli NCTC 10418 after 18 hrs by micro dilution method; assay type: functional; conditions: NCTC 10418, 18 h
[37] = test system: Staphylococcus haemolyticus; assay: Ratio of compound MIC to ciprofloxacin MIC for Staphylococcus haemolyticus NCTC 11042 after 18 hrs by micro dilution method; assay type: functional
Pseudomonas aeruginosa [38] = assay: Ratio of compound MIC to ciprofloxacin MIC for Pseudomonas aeruginosa BIG 37 clinical isolate after 18 hrs by micro dilution method; assay type: functional
Pseudomonas aeruginosa [39] = assay: Antimicrobial activity against Pseudomonas aeruginosa BIG 37 clinical isolate after 18 hrs by micro dilution method; assay type: functional; conditions: BIG 37, 18 h
Pseudomonas aeruginosa [40] = assay: Ratio of compound MIC to ciprofloxacin MIC for Pseudomonas aeruginosa NCTC 10662 after 18 hrs by micro dilution method; assay type: functional
Burkholderia cepacia [41] = assay: Ratio of compound MIC to ciprofloxacin MIC for Burkholderia cepacia BIG 117 after 18 hrs by micro dilution method; assay type: functional
[42] = test system: Staphylococcus epidermidis; assay: Ratio of compound MIC to ciprofloxacin MIC for Staphylococcus epidermidis NCTC 2749 after 18 hrs by micro dilution method; assay type: functional
Burkholderia cepacia [43] = assay: Ratio of compound MIC to ciprofloxacin MIC for Burkholderia cepacia BIG 119 after 18 hrs by micro dilution method; assay type: functional
[44] = test system: Stenotrophomonas maltophilia; assay: Ratio of compound MIC to ciprofloxacin MIC for Stenotrophomonas maltophilia N1127 after 18 hrs by micro dilution method; assay type: functional
Pseudomonas aeruginosa [45] = assay: Antimicrobial activity against Pseudomonas aeruginosa NCTC 10662 after 18 hrs by micro dilution method; assay type: functional; conditions: NCTC 10662, 18 h

## O=C(O)c1cn(C2CC2)c2cc(N3CCNCC3)c(F)cc2c1=O [CIPROFLOXACIN]
Serratia marcescens [1]
  MIC: 0.06 µg/mL (≈ 0.181 µM)
Burkholderia cepacia [2]
  MIC: 8 µg/mL (≈ 24.1 µM)
Burkholderia cepacia [3]
  MIC: 4 µg/mL (≈ 12.1 µM)
[4]
  MIC: 2 µg/mL (≈ 6.04 µM)
Burkholderia cepacia [5]
  MIC: 1 µg/mL (≈ 3.02 µM)
Escherichia coli [6]
  MIC: > 36 µg/mL
Burkholderia cepacia [7]
  MIC: 0.5 µg/mL (≈ 1.51 µM)
[8]
  inhibition: Active
Staphylococcus aureus [9]
  MIC: 0.5 µg/mL (≈ 1.51 µM)
Staphylococcus aureus [10]
  MIC: 0.25 µg/mL (≈ 0.754 µM)
Staphylococcus aureus [11]
  MIC: 0.5 µg/mL (≈ 1.51 µM)
[12]
  MIC: 0.125 µg/mL (≈ 0.377 µM)
Burkholderia cepacia [13]
  MIC: 2 µg/mL (≈ 6.04 µM)
Burkholderia cepacia [14]
  MIC: 0.25 µg/mL (≈ 0.754 µM)
Staphylococcus aureus [15]
  MIC: > 36 µg/mL
[16]
  MIC: 1 µg/mL (≈ 3.02 µM)
[17]
  MIC: 0.25 µg/mL (≈ 0.754 µM)
[18]
  MIC: 4 µg/mL (≈ 12.1 µM)
[19]
  MIC: 0.125 µg/mL (≈ 0.377 µM)
Staphylococcus aureus [20]
  MIC: > 36 µg/mL

## O=C(O)CC(O)(CC(=O)NCC(=O)N1CCN(c2cc3c(cc2F)c(=O)c(C(=O)O)cn3C2CC2)CC1)C(=O)O (racemic)
Serratia marcescens [1]
  MIC: 0.5 µg/mL (≈ 0.889 µM)
Staphylococcus aureus [21]
  Ratio: 18.8
Burkholderia cepacia [2]
  MIC: > 36 µg/mL
Burkholderia cepacia [3]
  MIC: 32 µg/mL (≈ 56.9 µM)
Pseudomonas aeruginosa [22]
  MIC: 2 µg/mL (≈ 3.56 µM)
[4]
  MIC: 32 µg/mL (≈ 56.9 µM)
Burkholderia cepacia [5]
  MIC: 8 µg/mL (≈ 14.2 µM)
Escherichia coli [6]
  MIC: 36 µg/mL (≈ 64 µM)
Burkholderia cepacia [7]
  MIC: 8 µg/mL (≈ 14.2 µM)
Pseudomonas aeruginosa [23]
  Ratio: 18.8
Burkholderia cepacia [24]
  Ratio: 18.8
Serratia marcescens [25]
  Ratio: 4.91
Escherichia coli [26]
  Ratio: 1.23
Pseudomonas aeruginosa [27]
  Ratio: 4.72
Staphylococcus aureus [28]
  Ratio: 18.8
Staphylococcus aureus [9]
  MIC: 16 µg/mL (≈ 28.4 µM)
Staphylococcus aureus [10]
  MIC: 16 µg/mL (≈ 28.4 µM)
Burkholderia cepacia [29]
  Ratio: 9.4
Pseudomonas aeruginosa [30]
  MIC: 8 µg/mL (≈ 14.2 µM)
Staphylococcus aureus [11]
  MIC: 16 µg/mL (≈ 28.4 µM)
Staphylococcus aureus [31]
  Ratio: 37.6
[12]
  MIC: 16 µg/mL (≈ 28.4 µM)
Burkholderia cepacia [13]
  MIC: 32 µg/mL (≈ 56.9 µM)
Burkholderia cepacia [32]
  Ratio: 9.4
[33]
  Ratio: 75.3
[34]
  inhibition: Active
[35]
  Ratio: 4.7
Burkholderia cepacia [14]
  MIC: 8 µg/mL (≈ 14.2 µM)
Escherichia coli [36]
  MIC: 0.125 µg/mL (≈ 0.222 µM)
[37]
  Ratio: 75.3
Pseudomonas aeruginosa [38]
  Ratio: 4.7
Pseudomonas aeruginosa [39]
  MIC: 16 µg/mL (≈ 28.4 µM)
Staphylococcus aureus [15]
  MIC: > 36 µg/mL
Pseudomonas aeruginosa [40]
  Ratio: 4.72
Burkholderia cepacia [41]
  Ratio: 4.7
[16]
  MIC: > 36 µg/mL
[17]
  MIC: 8 µg/mL (≈ 14.2 µM)
[18]
  MIC: 32 µg/mL (≈ 56.9 µM)
[19]
  MIC: 16 µg/mL (≈ 28.4 µM)
[42]
  Ratio: 18.8
Burkholderia cepacia [43]
  Ratio: 4.7
Staphylococcus aureus [20]
  MIC: > 36 µg/mL
[44]
  Ratio: 9.4
Pseudomonas aeruginosa [45]
  MIC: 2 µg/mL (≈ 3.56 µM)
